Data published in PMC12186844 (ACS Chemical Neuroscience, 2025).

What was measured:
[1] = molecular target: SNAP-D2SR G51^1.49A (Homo sapiens, UniProt P14416, G51A); assay: cell membrane [3H]spiperone assay
Procedure: (§1) Flp-In-CHO cells stably expressing the wild-type or mutant DRs were grown to 90% confluence in 175 cm^2 cell culture flasks. The cells were harvested in PBS containing 2 mM EDTA and centrifuged at 300g for 3 min. The resulting pellet was resuspended in ice-cold assay buffer (20 mM HEPES, 100 mM NaCl, 6 mM MgCl2, 1 mM EGTA, and 1 mM EDTA, pH 7.4), and the centrifugation step was repeated. The intact cell pellet was then resuspended in assay buffer and homogenized using a Polytron homogenizer. After centrifugation (1000g, 10 min), the pellet was discarded, and the supernatant was recentrifuged at 30,000g for 1 h at 4 °C using a Sorvall Evolution RC ultracentrifuge (Thermo Scientific). The resulting pellet was resuspended in assay buffer and stored in 250 μL aliquots at −80 °C. Membrane protein concentration was determined using a Pierce’s BCA protein assay kit (Thermo Fisher, Melbourne).
(§2) [^3H]­Spiperone binding experiments using cell membranes were conducted in a 200 μL reaction volume in assay buffer (20 mM HEPES, 100 mM NaCl, 6 mM MgCl2, 1 mM EGTA, and 1 mM EDTA, pH 7.4) containing 100 μM GppNHp and 0.1% ascorbic acid in 96-well plates. […] In all cases, nonspecific binding was determined in the presence of 10 μM haloperidol. […] Filter bound radioactivity was detected as a chemiluminescence after the addition of MicroScint-20 (Revvity) in a MicroBeta plate counter (Revvity). […]

[2] = system: 6-OHDA contralateral turning model; conditions: with subeffective dose of L-DOPA; earlier report, reference number not given; cited from earlier work
[3] = molecular target: T1, D2LR (Homo sapiens, UniProt P14416); assay: inhibition of forskolin-stimulated cAMP production, BRET biosensor; assay type: cell-based;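 note: Flp-In-CHO cells stably expressing CAMYEL cAMP BRET sensor, agonist plus 10 µM forskolin, net BRET after forskolin-vehicle subtraction, parameters from complete operational model of allosterism and agonism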
Procedure: (§3) Flp-In-CHO cells stably coexpressing the CAMYEL biosensor and DRs were plated into white 96-well CulturPlates (Revvity) and grown overnight. The cells were equilibrated in Hank’s balanced salt solution (HBSS) at 37 °C (or 25 °C when indicated) before starting the experiment. The cells were costimulated with the agonists and 10 μM forskolin for the indicated time frames when the BRET readings were captured. Coelenterazine (Nanolight Technology, AZ) was added at a final concentration of 5 μM at least 3 min prior to measurement. […] Net BRET was determined by subtraction of the vehicle control coadded with 10 μM forskolin.
(§4) Dose–response curves were fitted using the following three-parameter equation: response=bottom+top−bottom/1+10^(logEC50−log[A]) 5 where top and bottom represent the maximal and minimal asymptote of the dose response curve, [A] is the molar concentration of the agonist, and EC50 is the molar concentration of the agonist required to give a response half-way between bottom and top.

[4] = molecular target: T1, D2LR; assay: whole cell [3H]raclopride binding assay
Procedure: The binding reaction was conducted in HBSS for 1 h at 37 °C. The adherent cells were washed two times with cold 0.9% NaCl solution, and 100 μL/well scintilation liquid was added to the plate. The remaining radioactivity was detected in a MicroBeta counter.

[5] = molecular target: T2, SNAP-D2SR F50^1.48A (Homo sapiens, UniProt P14416, F50A); assay: functional cAMP assay, BRET biosensor; assay type: cell-based; design: expressed in transfected cells
Procedure: as §3, §4

[6] = molecular target: T3, SNAP-D2SR C118^3.36A (Homo sapiens, UniProt P14416, C118A); assay: cell membrane [3H]spiperone assay
T3 sequence (P14416 1-414 isoform P14416-2 C118A): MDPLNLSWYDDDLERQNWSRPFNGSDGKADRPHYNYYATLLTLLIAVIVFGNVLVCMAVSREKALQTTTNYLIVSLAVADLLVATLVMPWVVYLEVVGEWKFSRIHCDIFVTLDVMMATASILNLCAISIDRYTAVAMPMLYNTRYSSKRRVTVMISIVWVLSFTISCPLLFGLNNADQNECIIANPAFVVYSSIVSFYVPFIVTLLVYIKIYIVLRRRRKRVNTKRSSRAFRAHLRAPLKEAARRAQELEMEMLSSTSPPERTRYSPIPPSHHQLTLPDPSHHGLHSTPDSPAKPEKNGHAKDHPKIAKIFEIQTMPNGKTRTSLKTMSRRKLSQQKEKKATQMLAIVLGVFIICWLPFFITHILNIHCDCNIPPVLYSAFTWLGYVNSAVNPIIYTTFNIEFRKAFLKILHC
Procedure: as §1, §2

[7] = molecular target: D4.4R (Homo sapiens, UniProt P21917); assay: cell membrane [3H]spiperone binding assay
Procedure: as §1
[^3H]­Spiperone binding experiments using cell membranes were conducted in a 200 μL reaction volume in assay buffer (20 mM HEPES, 100 mM NaCl, 6 mM MgCl2, 1 mM EGTA, and 1 mM EDTA, pH 7.4) containing 100 μM GppNHp and 0.1% ascorbic acid in 96-well plates. […] In all cases, nonspecific binding was determined in the presence of 10 μM haloperidol. […] Filter bound radioactivity was detected as a chemiluminescence after the addition of MicroScint-20 (Revvity) in a MicroBeta plate counter (Revvity).

[8] = molecular target: T2, SNAP-D2SR F50^1.48A; assay: cell membrane [3H]spiperone assay
Procedure: as §1
[^3H]­Spiperone binding experiments using cell membranes were conducted in a 200 μL reaction volume in assay buffer (20 mM HEPES, 100 mM NaCl, 6 mM MgCl2, 1 mM EGTA, and 1 mM EDTA, pH 7.4) containing 100 μM GppNHp and 0.1% ascorbic acid in 96-well plates. […] In all cases, nonspecific binding was determined in the presence of 10 μM haloperidol. To obtain affinity estimates of unlabeled agonists, competition binding experiments were performed at equilibrium. […] After this incubation period, bound and free radioligands were separated by fast-flow filtration through UniFilter-96 GF/B plates using a MicroBeta FilterMate harvester (Revvity) followed by three washes with ice-cold 0.9% NaCl. Filter bound radioactivity was detected as a chemiluminescence after the addition of MicroScint-20 (Revvity) in a MicroBeta plate counter (Revvity).
IC50 values obtained from the inhibition curves were converted to Ki values using the Cheng and Prusoff equation.

[9] = molecular target: SNAP-D2SR L54^1.52A (Homo sapiens, UniProt P14416, L54A); assay: cell membrane [3H]spiperone assay
Procedure: as §1, §2

[10] = with S-(3)-PPP, listed as D2 PAM
[11] = cooperativity with [3H]raclopride
[12] = cooperativity with aripiprazole
[13] = cooperativity with bromocriptine
[14] = orthosteric ligand [3H]raclopride
[15] = orthosteric ligand aripiprazole
[16] = orthosteric ligand bromocriptine
[17] = titration of D2 PAM2 vs [3H]raclopride
[18] = titration, cooperativity with [3H]raclopride

T2 sequence (P14416 1-414 isoform P14416-2 F50A): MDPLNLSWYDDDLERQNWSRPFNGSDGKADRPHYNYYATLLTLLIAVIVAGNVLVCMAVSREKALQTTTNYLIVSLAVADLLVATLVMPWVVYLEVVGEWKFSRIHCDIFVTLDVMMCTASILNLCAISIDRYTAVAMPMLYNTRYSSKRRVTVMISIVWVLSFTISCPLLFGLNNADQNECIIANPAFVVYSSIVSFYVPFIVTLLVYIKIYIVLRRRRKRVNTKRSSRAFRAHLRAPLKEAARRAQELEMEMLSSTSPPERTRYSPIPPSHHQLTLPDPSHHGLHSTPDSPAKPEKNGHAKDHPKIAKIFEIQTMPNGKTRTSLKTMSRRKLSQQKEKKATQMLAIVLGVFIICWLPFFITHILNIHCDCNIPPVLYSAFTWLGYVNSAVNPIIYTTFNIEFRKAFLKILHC
T1 sequence (P14416 whole entry): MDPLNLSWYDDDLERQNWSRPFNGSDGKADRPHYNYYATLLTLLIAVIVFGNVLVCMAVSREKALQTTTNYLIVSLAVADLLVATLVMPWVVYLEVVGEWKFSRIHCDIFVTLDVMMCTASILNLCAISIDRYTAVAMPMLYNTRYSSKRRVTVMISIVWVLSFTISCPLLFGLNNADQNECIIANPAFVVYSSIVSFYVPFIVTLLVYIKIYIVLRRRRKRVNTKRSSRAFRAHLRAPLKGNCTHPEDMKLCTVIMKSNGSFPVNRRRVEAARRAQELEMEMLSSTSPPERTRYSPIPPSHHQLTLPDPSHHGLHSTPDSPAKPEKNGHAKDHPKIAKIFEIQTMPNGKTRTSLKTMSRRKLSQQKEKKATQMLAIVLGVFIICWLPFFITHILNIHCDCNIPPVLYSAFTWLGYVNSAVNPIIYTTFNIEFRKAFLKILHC
Sequence of SNAP-D2SR G51^1.49A (P14416 1-414 isoform P14416-2 G51A): as the sequence (P14416 1-414 isoform P14416-2 F50A) above, with A50F, G51A counted along it
Sequence of SNAP-D2SR L54^1.52A (P14416 1-414 isoform P14416-2 L54A): as the sequence (P14416 1-414 isoform P14416-2 F50A) above, with A50F, L54A counted along it
Sequence of D4.4R (P21917 whole entry): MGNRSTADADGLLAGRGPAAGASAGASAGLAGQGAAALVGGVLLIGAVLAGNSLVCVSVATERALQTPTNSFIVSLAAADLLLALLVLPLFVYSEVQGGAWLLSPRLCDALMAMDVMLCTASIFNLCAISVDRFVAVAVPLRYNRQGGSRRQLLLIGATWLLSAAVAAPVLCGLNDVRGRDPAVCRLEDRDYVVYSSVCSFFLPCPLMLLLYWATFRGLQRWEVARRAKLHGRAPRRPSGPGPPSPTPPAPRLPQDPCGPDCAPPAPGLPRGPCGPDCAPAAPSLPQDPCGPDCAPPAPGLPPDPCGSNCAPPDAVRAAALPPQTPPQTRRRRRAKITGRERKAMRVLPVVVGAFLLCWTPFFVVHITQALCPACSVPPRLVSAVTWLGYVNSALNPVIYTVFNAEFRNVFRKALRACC

Compound: COc1cc(CO)c(F)cc1C(=O)n1ccc2c(F)cccc21 [D2 PAM2, [5-fluoro-4-(hydroxymethyl)-2-methoxyphenyl]-(4-fluoro-1H-indol-1-yl)methanone]
- fold shift + 10 μM PAM ([1]; shift of DA IC50): 0.8 fold
- ΔpIC50 + 10 μM PAM ([1]; shift of DA pIC50): –0.08 ± 0.17
- effect on L-DOPA in a rodent model of Parkinson's disease [2]: potentiate a subeffective dose of L-DOPA
- agonism, fold lower than that of aripiprazole ([3]; D2 PAM2 alone, high D2R expression levels): approximately 2 fold
- pKB ([3]; cAMP): 5.37 ± 0.04
- LogτB ([3]; cAMP, intrinsic efficacy): -0.96 ± 0.04
- Logαβ ([3]; cAMP, with dopamine): 1.41 ± 0.04
- Kb ([3]; operational model of allostery, with DA): 5.5 µM
- Logαβ ([3]; with S-(3)-PPP): 1.46 ± 0.16
- Logβ ([3]; with S-(3)-PPP): 1.06
- β ([3]; with S-(3)-PPP): 11.5
- αβ [3, 10]: 28
- β [3, 10]: 11
- Logαβ ([3]; with apomorphine): 1.21 ± 0.13
- Logβ ([3]; with apomorphine): 0.16
- αβ ([3]; with apomorphine): 16
- β ([3]; with apomorphine): 1.4
- Logαβ ([3]; with aripiprazole): 1.61 ± 0.14
- Logβ ([3]; with aripiprazole): 1.18
- αβ ([3]; with aripiprazole): 41
- β ([3]; with aripiprazole): 15
- Logαβ ([3]; with bromocriptine): 0.76 ± 0.13
- Logβ ([3]; with bromocriptine): 0.49
- αβ ([3]; with bromocriptine): 5.8
- β ([3]; with bromocriptine): 3.1
- Logαβ ([3]; with dopamine): 1.35 ± 0.10
- Logβ ([3]; with dopamine): 0.02
- αβ ([3]; with dopamine): 22
- β ([3]; with dopamine): 1
- β ([3]; with dopamine, listed as D2 PAM): 1.0
- Logαβ ([3]; with lisuride): 0.66 ± 0.06
- Logβ ([3]; with lisuride): 0.11
- αβ ([3]; with lisuride): 4.6
- β ([3]; with lisuride): 1.3
- Logαβ ([3]; with pergolide): 1.50 ± 0.15
- Logβ ([3]; with pergolide): 0.26
- αβ ([3]; with pergolide): 32
- β ([3]; with pergolide): 1.8
- Logαβ ([3]; with pramipexole): 1.37 ± 0.12
- Logβ ([3]; with pramipexole): 0.16
- αβ ([3]; with pramipexole): 23
- β ([3]; with pramipexole): 1.4
- Logαβ ([3]; with ropirinole): 1.67 ± 0.12
- Logβ ([3]; with ropirinole): 0.53
- αβ ([3]; with ropirinole): 47
- β ([3]; with ropirinole): 3.4
- Logαβ ([3]; with rotigotine): 1.17 ± 0.09
- Logβ ([3]; with rotigotine): -0.20
- αβ ([3]; with rotigotine): 15
- β ([3]; with rotigotine): 0.6
- fold inhibition of [3H]raclopride affinity [4]: 2.43 fold
- Logα ([4]; cooperativity with S-(3)-PPP): 0.40 ± 0.11
- α ([4]; cooperativity with S-(3)-PPP): 2.5
- Logα [4, 11]: -0.39 ± 0.12
- α [4, 11]: −0.39
- α ([4]; cooperativity with [3H]raclopride, listed as D2 PAM): 0.41
- Logα ([4]; cooperativity with apomorphine): 1.05 ± 0.11
- α ([4]; cooperativity with apomorphine): 11
- Logα [4, 12]: 0.43 ± 0.10
- α [4, 12]: 2.7
- Logα [4, 13]: 0.27 ± 0.07
- α [4, 13]: 1.9
- Logα ([4]; cooperativity with dopamine): 1.33 ± 0.10
- α ([4]; cooperativity with dopamine): 22
- α ([4]; cooperativity with dopamine, listed as D2 PAM): 21
- Logα ([4]; cooperativity with lisuride): 0.55 ± 0.04
- α ([4]; cooperativity with lisuride): 3.5
- Logα ([4]; cooperativity with pergolide): 1.24 ± 0.14
- α ([4]; cooperativity with pergolide): 17
- Logα ([4]; cooperativity with pramipexole): 1.21 ± 0.11
- α ([4]; cooperativity with pramipexole): 16
- Logα ([4]; cooperativity with ropirinole): 1.14 ± 0.11
- α ([4]; cooperativity with ropirinole): 14
- Logα ([4]; cooperativity with rotigotine): 1.37 ± 0.09
- α ([4]; cooperativity with rotigotine): 23
- Kb ([4]; orthosteric ligand S-(3)-PPP): 5.12 µM
- pKB ([4]; orthosteric ligand S-(3)-PPP): 5.29 ± 0.05
- Kb [4, 14]: 5.5 µM
- pKB [4, 14]: 5.26 ± 0.10
- Kb ([4]; orthosteric ligand apomorphine): 6.31 µM
- pKB ([4]; orthosteric ligand apomorphine): 5.20 ± 0.10
- Kb [4, 15]: 7.24 µM
- pKB [4, 15]: 5.14 ± 0.04
- Kb [4, 16]: 8.12 µM
- pKB [4, 16]: 5.09 ± 0.13
- Kb ([4]; orthosteric ligand dopamine): 5.5 µM
- pKB ([4]; orthosteric ligand dopamine): 5.26 ± 0.10
- Kb ([4]; orthosteric ligand lisuride): 5.62 µM
- pKB ([4]; orthosteric ligand lisuride): 5.25 ± 0.07
- Kb ([4]; orthosteric ligand pergolide): 8.32 µM
- pKB ([4]; orthosteric ligand pergolide): 5.08 ± 0.10
- Kb ([4]; orthosteric ligand pramipexole): 6.92 µM
- pKB ([4]; orthosteric ligand pramipexole): 5.16 ± 0.11
- Kb ([4]; orthosteric ligand ropirinole): 8.71 µM
- pKB ([4]; orthosteric ligand ropirinole): 5.06 ± 0.06
- Kb ([4]; orthosteric ligand rotigotine): 4.68 µM
- pKB ([4]; orthosteric ligand rotigotine): 5.33 ± 0.14
- Kb ([4]; read-out: Kb, affinity for the unoccupied receptor, DA competition, allosteric ternary complex model): 5.5 µM
- Kb [4, 17]: 5.5 µM
- pKb [4, 17]: 5.26
- Logα [4, 18]: -0.37
- α [4, 18]: 0.43
- D2 PAM2 log τ [5]: –1.35 ± 0.22
- D2 PAM2 pKB [5]: 5.32 ± 0.28
- D2 PAM2 τ [5]: 0.04
- fold decrease in cooperativity with DA ([5]; cAMP): 7 fold
- Kb ([5]; read-out: D2 PAM2 KB (converted)): 5 µM
- D2 PAM2 log αβ ([5]; with DA): 0.39 ± 0.07
- D2 PAM2 αβ ([5]; with DA): 2.5
- fold shift + 10 μM PAM ([6]; shift of DA IC50): 2 fold
- ΔpIC50 + 10 μM PAM ([6]; shift of DA pIC50): 0.31 ± 0.10
- ability to potentiate DA binding at the D4R [7]: no activity was observed
- pKB ([8]; [3H]spiperone competition binding interaction experiment): 5.57 ± 0.25
- fold decrease in cooperativity with DA vs WT ([8]; binding): 5 fold
- Kb ([8]; binding interaction experiment): 3 µM
- log α ([8]; cooperativity with DA, binding): 0.33 ± 0.03
- α ([8]; cooperativity with DA, binding): 2.1
- fold shift + 10 μM PAM ([8]; shift of DA IC50): 1.7 fold
- ΔpIC50 + 10 μM PAM ([8]; shift of DA pIC50): 0.22 ± 0.12
- fold shift + 10 μM PAM ([9]; shift of DA IC50): 1.3 fold
- ΔpIC50 + 10 μM PAM ([9]; shift of DA pIC50): 0.10 ± 0.11
